What was measured:
[1] = xn = mol fraction of the nth substance listed; conditions: 101.3 kPa, Liquid
[2] = 101.3 kPa, Liquid

CCC(C)Cl (configuration not stated) [2-chlorobutane] + CC1CCCO1
[1]
Conditions | kinematic viscosity, 298.15 K [m2/s] | kinematic viscosity, 313.15 K [m2/s] | mass density, 298.15 K [kg/m3] | mass density, 313.15 K [kg/m3]
x1 = 0.035 | 5.55e-07 | 4.88e-07 | 850.14 | 834.84
x1 = 0.0835 | 5.49e-07 | 4.83e-07 | 851.29 | 835.54
x1 = 0.1742 | 5.38e-07 | 4.74e-07 | 853.4 | 837.42
x1 = 0.2553 | 5.29e-07 | 4.65e-07 | 854.9 | 839.1
x1 = 0.3568 | 5.17e-07 | 4.56e-07 | 857.12 | 840.87
x1 = 0.4555 | 5.05e-07 | 4.46e-07 | 858.75 | 842.26
x1 = 0.5396 | 4.96e-07 | 4.38e-07 | 860.37 | 843.91
x1 = 0.697 | 4.81e-07 | 4.24e-07 | 863.09 | 846.32
x1 = 0.797 | 4.71e-07 | 4.15e-07 | 864.45 | 847.77
x1 = 0.8975 | 4.63e-07 | 4.06e-07 | 866.03 | 848.87
x1 = 0.9487 | 4.58e-07 | 4.01e-07 | 866.65 | 849.41
x1 = 1 | 4.54e-07 | 3.97e-07 | 867.31 | 850.23

CC(C)CO [2-methyl-1-propanol]
[2]
Conditions | kinematic viscosity [m2/s] | mass density [kg/m3]
298.15 K | 4.25e-06 | 797.71
313.15 K | 2.74e-06 | 785.89

CC(C)CO [2-methyl-1-propanol] + CC1CCCO1
[1], x1 = 1
Conditions | kinematic viscosity [m2/s] | mass density [kg/m3]
298.15 K | 4.25e-06 | 797.71
313.15 K | 2.74e-06 | 785.89

CC(C)(C)O [2-methylpropan-2-ol]
[2]
Conditions | kinematic viscosity [m2/s] | mass density [kg/m3]
298.15 K | 5.59e-06 | 780.67
313.15 K | 2.74e-06 | 765.33

CC(C)(C)O [2-methylpropan-2-ol] + CC1CCCO1
[1], x1 = 1
Conditions | kinematic viscosity [m2/s] | mass density [kg/m3]
298.15 K | 5.59e-06 | 780.67
313.15 K | 2.74e-06 | 765.33

CC1CCCO1 (configuration not stated) [2-methyltetrahydrofuran]
[2]
Conditions | kinematic viscosity [m2/s] | mass density [kg/m3]
298.15 K | 5.59e-07 | 849.28
313.15 K | 4.92e-07 | 834.01

CC1CCCO1 (configuration not stated) [2-methyltetrahydrofuran] + CC(C)(C)Cl
[1], 298.15 K, x2 = 0
Conditions | kinematic viscosity [m2/s] | mass density [kg/m3]
– | 5.59e-07 | 849.28

CC1CCCO1 (configuration not stated) [2-methyltetrahydrofuran] + CC(C)(C)O
[1]
Conditions | kinematic viscosity, 298.15 K [m2/s] | kinematic viscosity, 313.15 K [m2/s] | mass density, 298.15 K [kg/m3] | mass density, 313.15 K [kg/m3]
x2 = 0 | 5.59e-07 | 4.92e-07 | 849.28 | 834.01
x2 = 0.038 | 5.81e-07 | 5.04e-07 | 846.42 | 831.02
x2 = 0.0906 | 6.07e-07 | 5.27e-07 | 842.39 | 826.98
x2 = 0.191 | 6.72e-07 | 5.73e-07 | 835.27 | 819.77
x2 = 0.3192 | 7.79e-07 | 6.49e-07 | 826.46 | 811.22
x2 = 0.3935 | 8.66e-07 | 7.06e-07 | 821.4 | 806.46
x2 = 0.4981 | 1.03e-06 | 8.15e-07 | 814.49 | 799.58
x2 = 0.5918 | 1.25e-06 | 9.49e-07 | 808.4 | 793.51
x2 = 0.6972 | 1.67e-06 | 1.17e-06 | 801.38 | 786.72
x2 = 0.7952 | 2.2e-06 | 1.47e-06 | 795.17 | 780.27
x2 = 0.8989 | 3.34e-06 | 1.97e-06 | 788.08 | 773.14
x2 = 0.9532 | 4.37e-06 | 2.35e-06 | 784.19 | 769.08

CC1CCCO1 (configuration not stated) [2-methyltetrahydrofuran] + CC(C)CCl
[1], x2 = 0
Conditions | kinematic viscosity [m2/s] | mass density [kg/m3]
298.15 K | 5.59e-07 | 849.28
313.15 K | 4.92e-07 | 834.01
